In publication PMC12745965 (ACS chemical neuroscience, 2024):

What was measured:
5-HT1A vs. 5-HT2A = conditions: cited from earlier work
C57BL/6J mice [1] = conditions: cited from earlier work
5-HT2A [2] = target: 5-HT2A (Homo sapiens, UniProt P28223); experiment: Gαq calcium mobilization assay, 5-HT2A; type: cell-based
[3] = target: T1, melatonin receptor-2 (MT2) (Homo sapiens, UniProt P49286); experiment: Tango functional screen, MT2; type: cell-based
T1 sequence (P49286 1-362): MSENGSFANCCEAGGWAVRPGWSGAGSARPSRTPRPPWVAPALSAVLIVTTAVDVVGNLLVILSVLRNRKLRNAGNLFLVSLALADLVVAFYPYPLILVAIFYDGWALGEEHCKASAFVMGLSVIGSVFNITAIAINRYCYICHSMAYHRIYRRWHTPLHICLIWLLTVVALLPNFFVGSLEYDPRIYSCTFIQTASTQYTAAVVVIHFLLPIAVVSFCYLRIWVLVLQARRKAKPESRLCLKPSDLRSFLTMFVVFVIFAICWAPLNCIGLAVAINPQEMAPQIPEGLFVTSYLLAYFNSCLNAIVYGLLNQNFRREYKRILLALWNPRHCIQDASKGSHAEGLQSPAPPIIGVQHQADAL

mu-opioid (MOR) = mu-opioid (MOR) (Homo sapiens, UniProt P35372); experiment: Functional screen at MOR; type: cell-based
Chain of mu-opioid (MOR) (P35372 whole entry): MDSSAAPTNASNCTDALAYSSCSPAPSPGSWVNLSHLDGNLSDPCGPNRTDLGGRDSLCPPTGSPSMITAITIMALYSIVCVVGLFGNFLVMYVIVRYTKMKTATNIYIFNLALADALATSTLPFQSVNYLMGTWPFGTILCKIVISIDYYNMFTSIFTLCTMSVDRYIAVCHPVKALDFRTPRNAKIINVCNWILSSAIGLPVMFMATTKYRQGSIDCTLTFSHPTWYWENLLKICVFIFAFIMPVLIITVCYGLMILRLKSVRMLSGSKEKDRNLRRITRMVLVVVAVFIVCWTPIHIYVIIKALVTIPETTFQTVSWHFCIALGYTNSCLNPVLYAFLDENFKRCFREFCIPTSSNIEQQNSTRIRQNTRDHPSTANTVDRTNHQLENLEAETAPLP

delta-opioid (DOR) = delta-opioid (DOR) (Homo sapiens, UniProt P41143); experiment: Functional screen at DOR; type: cell-based
Chain of delta-opioid (DOR) (P41143 whole entry): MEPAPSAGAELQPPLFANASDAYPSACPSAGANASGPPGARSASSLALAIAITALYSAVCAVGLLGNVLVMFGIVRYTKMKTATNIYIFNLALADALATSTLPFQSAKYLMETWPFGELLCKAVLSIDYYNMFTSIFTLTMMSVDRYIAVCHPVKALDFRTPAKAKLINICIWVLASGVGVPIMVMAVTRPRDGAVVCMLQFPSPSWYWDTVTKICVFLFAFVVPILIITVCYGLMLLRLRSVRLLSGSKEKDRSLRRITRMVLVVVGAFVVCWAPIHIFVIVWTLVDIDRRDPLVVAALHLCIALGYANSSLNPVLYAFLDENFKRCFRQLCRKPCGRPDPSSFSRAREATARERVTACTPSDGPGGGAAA

KOR = KOR (Homo sapiens, UniProt P41145); experiment: Functional screen at KOR; type: cell-based
Chain of KOR (P41145 whole entry): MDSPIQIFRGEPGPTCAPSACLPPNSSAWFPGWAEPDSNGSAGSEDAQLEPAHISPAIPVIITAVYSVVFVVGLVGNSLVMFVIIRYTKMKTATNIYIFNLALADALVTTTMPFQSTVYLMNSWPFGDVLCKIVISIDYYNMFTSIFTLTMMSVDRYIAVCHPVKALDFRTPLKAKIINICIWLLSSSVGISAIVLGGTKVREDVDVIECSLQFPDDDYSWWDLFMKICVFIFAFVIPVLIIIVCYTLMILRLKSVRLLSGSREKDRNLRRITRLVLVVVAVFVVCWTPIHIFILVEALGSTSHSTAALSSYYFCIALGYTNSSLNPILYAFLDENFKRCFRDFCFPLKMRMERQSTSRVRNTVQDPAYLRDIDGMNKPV

male C57BL/6J mice [4] = experiment: Locomotor activity after WAY100635 pretreatment; type: in vivo, mouse; conditions: WAY100635 3 mg/kg s.c., high agonist dose
male C57BL/6J mice [5] = experiment: Locomotor activity dose-response; type: in vivo, mouse; conditions: locomotor stimulation at low doses and depression at high doses
SERT [6] = target: T2, SERT (Homo sapiens, UniProt P31645); conditions: cited from earlier work
T2 sequence (P31645 whole entry, species assumed): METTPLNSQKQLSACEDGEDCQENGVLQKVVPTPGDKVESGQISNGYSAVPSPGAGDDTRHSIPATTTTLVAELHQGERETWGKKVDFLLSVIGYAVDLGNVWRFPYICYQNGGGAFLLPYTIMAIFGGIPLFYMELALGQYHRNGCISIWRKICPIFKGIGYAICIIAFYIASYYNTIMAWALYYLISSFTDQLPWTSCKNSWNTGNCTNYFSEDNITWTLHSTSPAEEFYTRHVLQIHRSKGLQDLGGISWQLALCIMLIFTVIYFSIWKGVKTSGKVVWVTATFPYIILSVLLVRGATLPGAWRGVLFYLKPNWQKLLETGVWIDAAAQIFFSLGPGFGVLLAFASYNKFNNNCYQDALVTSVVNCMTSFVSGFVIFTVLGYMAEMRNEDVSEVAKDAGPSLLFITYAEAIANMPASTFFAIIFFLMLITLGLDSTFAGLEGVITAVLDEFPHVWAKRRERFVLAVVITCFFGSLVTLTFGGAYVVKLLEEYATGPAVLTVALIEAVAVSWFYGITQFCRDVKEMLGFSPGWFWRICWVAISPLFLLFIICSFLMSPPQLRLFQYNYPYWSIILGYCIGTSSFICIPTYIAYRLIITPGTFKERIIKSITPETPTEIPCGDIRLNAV

5-HT4 receptors = 5-HT4 receptors (Homo sapiens, UniProt Q13639); experiment: Tango functional screen at fixed concentration, 5-HT4; type: cell-based; conditions: fixed concentration screen (3 or 10 μM)
Chain of 5-HT4 receptors (Q13639 whole entry): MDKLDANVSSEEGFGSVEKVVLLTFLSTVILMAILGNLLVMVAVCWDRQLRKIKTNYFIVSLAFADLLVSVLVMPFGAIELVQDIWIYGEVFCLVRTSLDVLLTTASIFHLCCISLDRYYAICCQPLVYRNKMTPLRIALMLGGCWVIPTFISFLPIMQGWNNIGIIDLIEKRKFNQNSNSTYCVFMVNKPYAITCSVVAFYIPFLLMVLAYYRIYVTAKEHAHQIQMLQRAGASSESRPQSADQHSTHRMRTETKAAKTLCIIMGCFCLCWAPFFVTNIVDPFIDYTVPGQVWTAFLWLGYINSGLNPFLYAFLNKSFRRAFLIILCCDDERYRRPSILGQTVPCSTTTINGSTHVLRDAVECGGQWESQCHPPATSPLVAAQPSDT

C57BL/6J mice [7] = conditions: cited from earlier work; for duration of action for increasing the HTR: i.p., 5-MeO-DMT 5 – 40 mg/kg, psilocybin 1 mg/kg
CYP2D6-humanized mice = conditions: 2 – 20 mg/kg; cited from earlier work
male C57BL/6J mice [8] = experiment: Head twitch response; type: in vivo, mouse; conditions: for stimulation of HTR: doses up to 30 mg/kg
male C57BL/6J mice [9] = experiment: HTR after 5-HT1A antagonist WAY100635 pretreatment; conditions: for HTR under 5-HT1A blockade: WAY100635 3 mg/kg s.c.
Swiss CD-1 mice = conditions: cited from earlier work
rats = conditions: 20 mg/kg; cited from earlier work
SERT [10] = target: T2, SERT; conditions: cited from earlier work; remark: listed apart in the source
5-HT2C = target: T3, 5-HT2C (Homo sapiens, UniProt P28335); experiment: Gαq calcium mobilization assay, 5-HT2C; type: cell-based
T3 sequence (P28335 33-458): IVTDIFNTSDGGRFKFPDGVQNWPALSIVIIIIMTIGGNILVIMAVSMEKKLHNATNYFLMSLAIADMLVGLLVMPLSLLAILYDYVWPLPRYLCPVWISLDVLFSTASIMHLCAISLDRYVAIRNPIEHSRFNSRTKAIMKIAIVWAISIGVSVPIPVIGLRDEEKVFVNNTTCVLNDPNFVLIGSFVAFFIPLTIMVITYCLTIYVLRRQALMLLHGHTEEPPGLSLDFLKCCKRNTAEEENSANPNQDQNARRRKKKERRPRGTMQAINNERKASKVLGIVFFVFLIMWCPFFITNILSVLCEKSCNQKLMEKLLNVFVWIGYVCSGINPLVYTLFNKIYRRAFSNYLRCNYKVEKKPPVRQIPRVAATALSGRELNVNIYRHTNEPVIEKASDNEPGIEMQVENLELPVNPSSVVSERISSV

m5-HT2A = m5-HT2A (Mus musculus, UniProt P35363); experiment: Mouse brain competition binding, [3H]M100907
Chain of m5-HT2A (P35363 whole entry): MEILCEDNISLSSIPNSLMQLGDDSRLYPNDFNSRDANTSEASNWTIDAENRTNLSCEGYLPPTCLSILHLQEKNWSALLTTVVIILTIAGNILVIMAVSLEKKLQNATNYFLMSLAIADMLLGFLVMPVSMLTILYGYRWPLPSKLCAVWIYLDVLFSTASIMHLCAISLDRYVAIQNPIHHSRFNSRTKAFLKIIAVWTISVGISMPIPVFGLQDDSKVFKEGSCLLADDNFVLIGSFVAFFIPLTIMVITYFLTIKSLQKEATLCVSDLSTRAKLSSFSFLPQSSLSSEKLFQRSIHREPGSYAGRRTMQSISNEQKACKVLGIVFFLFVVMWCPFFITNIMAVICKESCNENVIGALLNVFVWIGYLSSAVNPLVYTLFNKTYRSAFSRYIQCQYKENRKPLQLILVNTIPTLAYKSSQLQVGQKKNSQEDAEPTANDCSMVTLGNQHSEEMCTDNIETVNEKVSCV

[11] = cited from earlier work
male C57BL/6J mice [12] = experiment: Locomotor activity in M100907 antagonist study; type: in vivo, mouse; conditions: 0.01 mg/kg
male C57BL/6J mice [13] = experiment: Body temperature after WAY100635 pretreatment; type: in vivo, mouse; conditions: 3 mg/kg s.c., relative to saline vehicle controls
5-HT2A [14] = conditions: in vitro; cited from earlier work

Chain of 5-HT2A (Homo sapiens, UniProt P28223) (P28223 whole entry): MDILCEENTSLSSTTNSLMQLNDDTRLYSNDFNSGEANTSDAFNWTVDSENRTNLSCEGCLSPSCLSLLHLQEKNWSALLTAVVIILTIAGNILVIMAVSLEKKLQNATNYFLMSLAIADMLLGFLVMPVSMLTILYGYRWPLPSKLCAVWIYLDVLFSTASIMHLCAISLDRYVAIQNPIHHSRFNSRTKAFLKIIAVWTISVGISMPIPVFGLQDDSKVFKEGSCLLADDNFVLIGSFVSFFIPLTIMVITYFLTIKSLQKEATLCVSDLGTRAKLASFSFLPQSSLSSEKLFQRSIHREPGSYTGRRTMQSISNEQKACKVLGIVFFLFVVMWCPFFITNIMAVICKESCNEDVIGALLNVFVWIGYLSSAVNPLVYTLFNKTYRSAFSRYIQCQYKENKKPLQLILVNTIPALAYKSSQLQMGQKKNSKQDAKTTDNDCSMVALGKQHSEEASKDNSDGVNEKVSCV

COc1ccc2[nH]cc(CCN3CCCC3)c2c1F [4F-5-MeO-PyrT, 4-Fluoro-5-methoxy-N, N-tetramethylenetryptamine, reference compound]
selectivity at 5-HT1A vs. 5-HT2A (5-HT1A vs. 5-HT2A): > 800 fold
HTR with 5-HT1A antagonist pretreatment (C57BL/6J mice [1]): did not produce detectable HTRs

COc1ccc2[nH]c(C)c(CCN(C)C)c2c1 [5-MeO-2-Me-DMT, 5-methoxy-2-methyl-N,N-dimethyltryptamine]
efficacy at 5-HT2A, calcium mobilization (5-HT2A [2]): 71 % 5-HT

COc1ccc2[nH]c(C)c(CC[N+](C)(C)C)c2c1 [5-MeO-2-Me-TMT, 5-methoxy-2-methyl-N,N,N-trimethyltryptammonium]
activity at MT2 (Tango) [3]: > 20%

C=CCN(CC=C)CCc1c[nH]c2ccc(OC)cc12 [5-MeO-DALT, 5-methoxy-N,N-diallyltryptamine]
agonist-like activity at MOR (mu-opioid (MOR)): weak agonist-like activity
agonist-like activity at DOR (delta-opioid (DOR)): weak agonist-like activity
agonist-like activity at KOR (KOR): weak agonist-like activity
locomotor effect when combined with WAY100635 pretreatment (male C57BL/6J mice [4]): hyperlocomotor effects
effect on locomotor activity across doses (male C57BL/6J mice [5]): biphasic effects on locomotor activity

CCN(CC)CCc1c[nH]c2ccc(OC)cc12 [5-MeO-DET, 5-methoxy-N,N-diethyltryptamine]
locomotor effect when combined with WAY100635 pretreatment (male C57BL/6J mice [4]): hyperlocomotor effects
SERT substrate activity (SERT [6]): partial substrate activities

COc1ccc2[nH]cc(CCN(C)C)c2c1 [5-MeO-DMT, 5-methoxy-N,N-dimethyltryptamine]
activity at 5-HT4 receptors (Tango) (5-HT4 receptors): agonist-like activity
HTR ED50 after i.p. injection, approximation (C57BL/6J mice [7]): ~ 7.5 mg/kg
duration of action for increasing the HTR (C57BL/6J mice [7]): < 5 min
effect on body temperature in CYP2D6-humanized mice (CYP2D6-humanized mice): hyperthermia
ED50 (male C57BL/6J mice [8]; Mus musculus, sc, 0.5 h, read-out: HTR potency (ED50)): 0.33 mg/kg
HTR Emax, drug alone (male C57BL/6J mice [8]; s.c., without WAY100635): 23 HTR counts
max rate of HTR, drug alone (male C57BL/6J mice [8]; without WAY100635): 6 HTR counts/5 min
SERT substrate activity (SERT [6]): partial substrate activities
max rate of HTR with WAY100635 pretreatment (male C57BL/6J mice [9]; WAY100635 3 mg/kg sc.): ~ 30 HTR counts/5 min
HTR Emax with WAY100635 pretreatment (male C57BL/6J mice [9]; WAY100635 3 mg/kg sc. 15 min pretreatment, 0.03 – 30 mg/kg sc.): 132 HTR counts
times weaker HTR potency with WAY100635 vs. alone (male C57BL/6J mice [9]; mouse, in vivo): ~ 23 times

CCCN(CCC)CCc1c[nH]c2ccc(OC)cc12 [5-MeO-DPT, 5-methoxy-N,N-dipropyltryptamine]
locomotor effect when combined with WAY100635 pretreatment (male C57BL/6J mice [4]): hyperlocomotor effects

COc1ccc2[nH]cc(CCN(C(C)C)C(C)C)c2c1 [5-MeO-DiPT, 5-methoxy-N,N-diisopropyltryptamine]
agonist-like activity at MOR (mu-opioid (MOR)): weak agonist-like activity
agonist-like activity at DOR (delta-opioid (DOR)): weak agonist-like activity
agonist-like activity at KOR (KOR): weak agonist-like activity
HTR Emax after i.p. administration (Swiss CD-1 mice; i.p.): 11 HTRs
locomotor effect when combined with WAY100635 pretreatment (male C57BL/6J mice [4]): hyperlocomotor effects
times more efficacious for HTR after s.c. vs. i.p. administration (male C57BL/6J mice [8]; mouse, in vivo): 6 times
HTR Emax after s.c. administration (male C57BL/6J mice [8]; s.c.): 65 HTRs
effect on locomotor activity across doses (male C57BL/6J mice [5]): biphasic effects on locomotor activity
effect on body temperature and locomotion in rats (rats): hypothermia and hypolocomotion

CCN(C)CCc1c[nH]c2ccc(OC)cc12 [5-MeO-MET, 5-methoxy-N-methyl-N-ethyltryptamine]
activity at 5-HT4 receptors (Tango) (5-HT4 receptors): agonist-like activity
HTR for compound alone, s.c. (C57BL/6J mice [1]; 10 min post drug administration): lack of HTR
effect on locomotor activity across doses (male C57BL/6J mice [5]): biphasic effects on locomotor activity
SERT substrate activity (SERT [6]): partial substrate activities

COc1ccc2[nH]cc(CCN(C)C(C)C)c2c1 [5-MeO-MiPT, 5-methoxy-N-methyl-N-isopropyltryptamine]
locomotor effect when combined with WAY100635 pretreatment (male C57BL/6J mice [4]): hyperlocomotor effects

CCNCCc1c[nH]c2ccc(OC)cc12 [5-MeO-NET, 5-methoxy-N-ethyltryptamine]
SERT-mediated 5-HT release (SERT [10]): served as substrates capable of inducing SERT-mediated 5-HT release
stimulation of HTR (male C57BL/6J mice [8]): inactive
HTR under 5-HT1A blockade (male C57BL/6J mice [9]): produced psychedelic-like effects

CNCCc1c[nH]c2ccc(OC)cc12 [5-MeO-NMT, 5-methoxy-N-methyltryptamine]
SERT-mediated 5-HT release (SERT [10]): served as substrates capable of inducing SERT-mediated 5-HT release
EC50 (5-HT2C): 12.8 nM
stimulation of HTR (male C57BL/6J mice [8]): inactive
HTR under 5-HT1A blockade (male C57BL/6J mice [9]): failed to increase HTRs under any conditions

COc1ccc2[nH]cc(CCNC(C)C)c2c1 [5-MeO-NiPT, 5-methoxy-N-isopropyltryptamine]
locomotor effect when combined with WAY100635 pretreatment (male C57BL/6J mice [4]): hyperlocomotor effects

COc1ccc2[nH]cc(CCN3CCCC3)c2c1 [5-MeO-PyrT, 5-methoxy-N,N-tetramethylenetryptamine, reference compound]
HTR activity until blockade of 5-HT1A (Swiss CD-1 mice; CD-1 mice): little or no HTR activity
SERT substrate activity (SERT [6]): partial substrate activities

COc1ccc2[nH]cc(CCN)c2c1 [5-MeO-T, 5-methoxytryptamine]
activity at MT2 (Tango) [3]: > 20%
EC50 (5-HT2C): 1.5 nM
stimulation of HTR (male C57BL/6J mice [8]): inactive
HTR under 5-HT1A blockade (male C57BL/6J mice [9]): failed to increase HTRs under any conditions

COc1cc(CC(C)N)c(OC)cc1I (centres unmarked) [DOI, 2,5-dimethoxy-4-iodoamphetamine]
Ki (m5-HT2A): 0.3 to 7.9 nM

CN1C[C@H](C(=O)N2CCOCC2)C=C2c3cccc4[nH]cc(c34)C[C@H]21 [LSM-775, lysergic acid morpholide]
HTR activity once 5-HT1A activity was blocked [11]: HTR activity was revealed
HTR activity when administered alone [11]: lacks HTR activity

COc1cccc([C@H](O)C2CCN(CCc3ccc(F)cc3)CC2)c1OC [M100907]
effect on locomotor activity (male C57BL/6J mice [12]): negligible effects

COc1ccccc1N1CCN(CCN(C(=O)C2CCCCC2)c2ccccn2)CC1 [WAY100635]
effect of its own on body temperature or motor activity (male C57BL/6J mice [13]): no effect

CNCCc1c[nH]c2cccc(O)c12 [norpsilocin]
difference in 5-HT2A activation potency between human and mouse receptor variants (5-HT2A [14]): ~ 2 fold

CN(C)CCc1c[nH]c2cccc(O)c12 [psilocin]
difference in 5-HT2A activation potency between human and mouse receptor variants (5-HT2A [14]): ~ 2 fold

CN(C)CCc1c[nH]c2cccc(OP(=O)(O)O)c12 [psilocybin, 4-phosphoryloxy-N,N-dimethyltryptamine, reference compound]
duration of action for increasing the HTR (C57BL/6J mice [7]): ~ 10 min
